# Tested on: Pseudomonas aeruginosa ATCC 27853
# Experiment: Minimal inhibitory concentration (MIC) by serial 1:2 dilutions
# Assay type: cell-based
# Settings: MIC = greatest dilution at which 100% of a starting culture of 1 × 10^6 bacteria are killed
substance,measurement,value
Sodium Chlorite [0.5% Sodium Chlorite],MIC against Pseudomonas aeruginosa ATCC 27853,⅛

# — patent US20210244029A1, “ANTIMICROBIAL COMPOSITIONS” (Aseptic Health, LLC, priority 2019, published 2021)
